# In patent US20190223483A1, “SENSORY MODIFIER COMPOUNDS” (CARGILL, INCORPORATED, priority 2017, published 2019):
# Experiment: Roundtable assessment of astringency
# Format: in vivo
# Conditions: RebM 700 ppm, modifier between 0 ppm and about 500 ppm
# Description: For other sweetness attributes, the solutions were tested by a panel of at least four individuals that are highly-trained in tasting steviol glycoside solutions. The highly-trained panelists used a roundtable methodology to assess each sweetness attribute. To test each solution, the highly-trained panelists dispensed approximately 2 mL of each solution into their own mouths by transfer pipet, dispersed the solution by moving their tongues, and recorded a value for the particular sweetness attribute being tested. Between tasting solutions, the panelists were able to cleanse their palates with water. For each sweetness attribute, the panelist agreed on a descriptive scale with relative intensities assigned for each sweetness attribute and then recorded the values for each sweetness attribute against this. For example, this roundtable assessment of sweetness linger assigned a scale of 0 to 6 with a score of 0 indicating no sweetness linger and a score of 6 indicating extreme sweetness linger. Roundtable assessment of sweetness linger assigned a scale of 0 to 6 with a score of 0 indicating no sweetness linger and a score of 6 indicating extreme sweetness linger (0=none, 1=trace, 2=slight, 3=moderate, 4=definite, 5=strong, 6=extreme). Roundtable assessment of rounded assigned a scale of 0 to 3 with a score of 0 indicating spikey and a score of 3 indicating desirable rounded (0=none, 1=mostly spikey, some rounded, 2=mostly rounded, some spikey, 3=rounded). Roundtable assessment of mouthfeel assigned a scale of 0 to 2 with a score of 0 indicating water and a score of 2 indicating syrupy (0=water, 1=sucrosey, 2=syrupy). Roundtable assessment of bitterness assigned a scale of 0 to 6 with a score of 0 indicating no bitterness and a score of 6 indicating extreme sweetness linger (0=none, 1=trace, 2=slight, 3=moderate, 4=definite, 5=strong, 6=extreme). Roundtable assessment of off tastes assigned a scale of 0 to 6 with a score of 0 indicating no bitterness and a score of 6 indicating extreme off tastes (0=none, 1=trace, 2=slight, 3=moderate, 4=definite, 5=strong, 6=extreme).
# Roundtable assessment of botanical notes assigned a scale of 0 to 5 with a score of 0 indicating no botanical notes and a score of 5 indicating strong (0=none, 1=trace, 2=slight, 3=moderate, 4=definite, 5=strong).
# Solutions of steviol glycosides and sensory modifier compound were prepared at increasing ratios of sensory modifier to steviol glycoside by weight. […] The concentration of steviol glycosides was 700 ppm in each solution. The solutions were tested for astringency.
smiles,measurement,value
"O=C(/C=C/c1ccc(O)c(O)c1)O[C@@H](C(=O)O)[C@@H](OC(=O)/C=C/c1ccc(O)c(O)c1)C(=O)O [tartaric backbone (cichoric acid), cichoric acid]",Astringency,imperceptible
